From patent US20260159519A1, “IMIDAZOPYRIDAZINE SUBSTITUTED BENZENE RING DERIVATIVE, PREPARATION METHOD, PHARMACEUTICAL COMPOSITION AND USE” (SHANGHAI SIMR BIOTECHNOLOGY CO., LTD., priority 2022, published 2026)
Where two headings read alike, the source gives them in different places.

Key:
[1] = target: T1, human α2-GABAA receptor (BZD site, membrane protein of HEK293 cells) (Homo sapiens, UniProt P18507+P47869); test: Radioligand competitive binding assay (3H-flunitrazepam) at the BZD site of the α2-GABAA receptor
T1 construct: expressed in transfected cells
Excerpt: (§1) α subunit, β subunit, and γ subunit are essential for the formation of a complete and functional GABAA receptor. In this example of the present disclosure, HEK293 cells stably expressing the human α1-GABAA receptor (α1-GABAAR) and α2-GABAA receptor (α2-GABAAR) were constructed and separately selected using the lipofection method (Felgner, P. L., et al. Proceedings of the National Academy of Sciences, 1987, 84: 7413-7417). The α1-GABAAR-HEK293 cell model simultaneously expressed the α1 subunit (for protein sequence, see GenBank accession No.: NM_000806.5), the […] (for protein sequence, see GenBank accession No.: NM_000814.5), and the […] (for protein sequence, see GenBank accession No.: NM_000816.3). The α2-GABAAR-HEK293 cell model simultaneously expressed the α2 subunit (for protein sequence, see GenBank accession No.: NM_000807.4), the β3 subunit (for protein sequence, see GenBank accession No.: NM_000814.5), and the γ2 subunit (for protein sequence, see GenBank accession No.: NM_000816.3).
(§2) The above cell lines were subcultured. The α2-GABAAR-HEK293 cells were expanded for testing the affinity of compounds to the benzodiazepine (BZD) site of the GABAA receptor. During the passage process, some of the α1-GABAAR-HEK293 cells and α2-GABAAR-HEK293 cells were suspended and plated on a slide pre-treated with Poly-D-Lysine for electrophysiological testing (method referenced from patent CN107344936A, paragraph 0586).
The affinity of the compounds for the α2-GABAA receptor was determined by competing for the binding of ^3H-flunitrazepam (isotope ^3H-labelled flunitrazepam) to the BZD site on the membrane protein of HEK293 cells stably expressing the human α2-GABAAR.
Membrane preparation: Cells were suspended in 50 mM Tris-HCl buffer (pH=7.4), homogenized 10 times for 20 seconds with a homogenizer on ice, and centrifuged at 1000 g for 10 minutes at 4° C. The supernatant was taken, and the above steps were repeated. The supernatant was centrifuged at 4° C. (33800 g; Thermo, rotor: A27-8×50) for 60 minutes. The precipitate was resuspended in Tris buffer (50 mM Tris-HCl, 10 mM MgCl2, 0.5 mM EDTA, and 10% glycerol). The protein content was determined (BCA (bicinchoninic acid) protein quantification assay based on copper ion reduction, with a BCA kit purchased from Pierce (Annoron (Beijing) Biotechnology Co., Ltd.)), and 1 mL aliquots were prepared and stored at −80° C.
Radioligand competitive binding assay: This assay was performed in a 200 μL system (96-well plate) containing 100 μL of cell membrane. The concentration of ^3H-flunitrazepam was 1 nM, and the concentrations of the test compounds were in the range of […]. Flumazenil was used as a control. 1 μL of 2 mM flumazenil (final […]) was added to each low signal control (low control, LC) well, and 1 μL of dimethyl sulfoxide was added to each high signal control (high control, HC) well. The final concentration of target membrane protein was […]. All sample stock solutions of test compounds were 10 mM dimethyl sulfoxide solutions. All the samples were diluted to a concentration of 0.2 mM with dimethyl sulfoxide, and then subjected to a 4-fold serial dilution for a total of 8 working concentration gradients. The 96-well plate was sealed with a sealing membrane and then incubated on a shaker at room temperature for 1 hour. Meanwhile, a GF/C filter plate was soaked in plate soaking buffer (0.3% PEI (polyethyleneimine, purchased from Sigma-Aldrich, model: P314), stored at 4° C.) for at least 0.5 hours. After the binding incubation was completed, the cells were harvested onto the GF/C filter plate using a cell harvester and washed four times with plate washing buffer (50 mM Tris-HCl, pH 7.4, stored at 4° C.). After drying in an oven at 50° C. for 1 hour, the dried GF/C filter plate was bottom-sealed. The residual radioactivity on the filter membrane was detected by liquid scintillation counting.

[2] = target: T2, human α1-GABAA receptor (α1-GABAAR-HEK293 cells) (Homo sapiens, UniProt P14867+P18507); test: Whole-cell patch-clamp electrophysiology, positive allosteric modulatory activity on α1-GABAA receptor; format: cell-based; settings: read-out: α1-GABAA positive allosteric modulatory activity
T2 construct: expressed in transfected cells
Excerpt: as §1, §2
(§3) The positive regulatory activity of the test drugs on the α1-GABAA receptor and the α2-GABAA receptor was detected by the electrophysiological method. The specific method was as follows:
(§4) Compound concentration setting: The final concentration of the compounds used for screening was 100 nM. For cell lines expressing the α1-GABAA receptor, the concentration of GABA was 0.05 to 0.07 μM (approximately EC2-4). For cell lines expressing the α2-GABAA receptor, the concentration of GABA was 0.10 to 0.11 μM (approximately EC7-8). Electrophysiological testing was performed using the whole-cell patch-clamp technique, which can refer to the method reported in the literature (Nickolls, S. A., et al. British Journal of Pharmacology, 2018, 175: 708-725). The composition of the extracellular solution (ECS) for electrophysiology was as follows: 150 mM NaCl, 5 mM KCl, 2.5 mM CaCl2, 1 mM MgCl2, 10 mM HEPES, and 10 mM glucose (pH 7.4). The formulation of the intracellular solution (ICS) for electrophysiology was as follows: 140 mM CsCl, 11 mM EGTA, 10 mM HEPES, 2 mM CaCl2, 1 mM MgCl2, 4 mM MgATP, and 2 mM TEA (pH 7.3). GABA (γ-aminobutyric acid) powder was prepared into a mother liquor with pure water, which was then diluted in ECS. The compound was first prepared into a 4 mM mother liquor with dimethyl sulfoxide, which was then gradually diluted in the corresponding concentration of GABA-ECS. The solutions were freshly prepared prior to electrophysiological testing.
(§5) Electrophysiological signal acquisition was performed using an EPC 10 amplifier and PatchMaster software (HEKA) or an Axon 700B amplifier and Clampex software (AXON). The recording electrode was made through a drawing process using borosilicate glass, with an electrode resistance of 4 to 6 MΩ. Extracellular administration was performed using the ALA-VC-8PG™ system. A single, independently growing cell was selected. After the glass electrode formed a good seal with the cell, the membrane was ruptured to form the whole-cell configuration. The cell membrane potential was clamped at −60 mV and recorded in Gap-free mode. During the test, the extracellular solution was first applied extracellularly for approximately 20 seconds. After the baseline (Iprebaseline) stabilized, the extracellular solution was switched to GABA-ECS. At this point, the current induced by GABA (Igaba) could be detected. After approximately 10 to 20 seconds, when the current stabilized, the extracellular solution was switched to a mixture of the compound and GABA-ECS. […]

[3] = target: T3, human α2-GABAA receptor (α2-GABAAR-HEK293 cells) (Homo sapiens, UniProt P18507+P47869); test: Whole-cell patch-clamp electrophysiology, positive allosteric modulatory activity on α2-GABAA receptor; format: cell-based; settings: read-out: α2-GABAA positive allosteric modulatory activity
T3 construct: expressed in transfected cells
Excerpt: as §1, §2, §3, §4, §5

[4] = competition with 1 nM 3H-flunitrazepam, Ki calculated from IC50, read-out: α2 Ki

How did the Ki [1, 4] turn out when `CCn1cnc2c(-c3ccc(F)c(-c4ccc5c(nnn5C5CCOC5)c4COC)c3)cnnc21` (stereo not drawn) [Example 157, 7-Ethyl-4-(4-fluoro-3-(4-(methoxymethyl)-1-(tetrahydrofuran-3-yl)-1H-benzo[d][1,2,3]triazol-5-yl)phenyl)-7H-imidazo[4,5-c]pyridazine] was run?
Its Ki is 23.3 nM.

What about the activation at 0.1 µM [2] of the same molecule?
Its activation at 0.1 µM is 50%.

What about the activation at 0.1 µM [3] of the same molecule?
Its activation at 0.1 µM is 99%.

With `CCn1cnc2c(-c3ccc(F)c(-c4cc5cn(C6CCN(C)CC6F)nc5cc4OC)c3)cnnc21` (stereo not drawn) [Example 76, 7-Ethyl-4-(4-fluoro-3-(2-(3-fluoro-1-methylpiperidin-4-yl)-6-methoxy-2H-indazol-5-yl)phenyl)-7H-[4,5-c]pyridazine] as the molecule, how does the Ki [1, 4] read?
The Ki was 2.43 nM.

What about the activation at 0.1 µM [2] of the same molecule?
Its activation at 0.1 µM is 61%.

And the activation at 0.1 µM [3]?
Its activation at 0.1 µM is 107%.

For `CCn1cnc2c(-c3ccc(F)c(-c4cc5ccnnc5cc4OC)c3)cnnc21` [Example 112, 6-(5-(7-Ethyl-7H-imidazo[4,5-c]pyridazin-4-yl)-2-fluorophenyl)-7-methoxycinnoline], which Ki [1, 4] is on record?
The Ki was 7.62 nM.

And the activation at 0.1 µM [2]?
Its activation at 0.1 µM is 64%.

And the activation at 0.1 µM [3]?
The activation at 0.1 µM was 171%.

Which Ki [1, 4] does the source give for `CCn1cnc2c(-c3ccc(F)c(-c4cc5sc(=O)n(C)c5cc4OC)c3)cnnc21` [Example 53, 6-(5-(7-Ethyl-7H-imidazo[4,5-c]pyridazin-4-yl)-2-fluorophenyl)-5-methoxy-3-methylbenzo[d]thiazol-2(3H)-one] here?
The Ki was 3.78 nM.

What about the activation at 0.1 µM [2] of the same molecule?
Its activation at 0.1 µM is 21%.

And the activation at 0.1 µM [3]?
Its activation at 0.1 µM is 94%.

With `CCn1cnc2c(-c3ccc(F)c(-c4cc5cn(C6COC6)nc5cc4OC)c3)cnnc21` [Example 129, 7-Ethyl-4-(4-fluoro-3-(6-methoxy-2-(oxetan-3-yl)-2H-indazol-5-yl)phenyl)-7H-imidazo[4,5-c]pyridazine] as the molecule, how does the Ki [1, 4] read?
Its Ki is 3.23 nM.

What about the activation at 0.1 µM [2] of the same molecule?
Its activation at 0.1 µM is 56%.

And the activation at 0.1 µM [3]?
The activation at 0.1 µM was 128%.

Which Ki [1, 4] does the source give for `CCn1cnc2c(-c3ccc(F)c(-c4cc5cn(-c6nccn6C)nc5cc4OC)c3)cnnc21` [Example 78, 7-Ethyl-4-(4-fluoro-3-(6-methoxy-2-(1-methyl-1H-imidazol-2-yl)-2H-indazol-5-yl)phenyl)-7H-imidazo[4,5-c]pyridazine] here?
The Ki was 3.91 nM.

What about the activation at 0.1 µM [2] of the same molecule?
The activation at 0.1 µM was 10%.

And the activation at 0.1 µM [3]?
Its activation at 0.1 µM is 110%.

How did the Ki [1, 4] turn out when `CC[C@H]1Oc2cc(-c3cc(-c4cnnc5c4ncn5CC)ccc3F)c(OC)cc2N(C)C1=O` (single isomer, unassigned) [Example 8] was run?
The Ki was 4.76 nM.

And the activation at 0.1 µM [2]?
The activation at 0.1 µM was 79%.

And the activation at 0.1 µM [3]?
The activation at 0.1 µM was 130%.

With `CCn1cnc2c(-c3ccc(F)c(-c4cc5cn(C6CCN(C7COC7)CC6)nc5cc4OC)c3)cnnc21` [Example 77, 7-Ethyl-4-(4-fluoro-3-(6-methoxy-2-(1-(oxetan-3-yl)piperidin-4-yl)-2H-indazol-5-yl)phenyl)-7H-imidazo[4,5-c]pyridazine] as the molecule, how does the Ki [1, 4] read?
The Ki was 1.13 nM.

And the activation at 0.1 µM [2]?
Its activation at 0.1 µM is 66%.

And the activation at 0.1 µM [3]?
Its activation at 0.1 µM is 104%.

For `CCn1cnc2c(-c3ccc(F)c(-c4cc5cncnc5cc4OC)c3)cnnc21` [Example 164, 6-(5-(7-Ethyl-7H-imidazo[4,5-c]pyridazin-4-yl)-2-fluorophenyl)-7-methoxyquinazoline], which Ki [1, 4] is on record?
The Ki was 9.24 nM.

And the activation at 0.1 µM [2]?
The activation at 0.1 µM was 29%.

And the activation at 0.1 µM [3]?
Its activation at 0.1 µM is 122%.

`CCn1cnc2c(-c3ccc(F)c(-c4cc5c(cc4OC)N(CCN4CCCC4)C(=O)CO5)c3)cnnc21` [Example 17, 7-(5-(7-Ethyl-7H-imidazo[4,5-c]pyridazin-4-yl)-2-fluorophenyl)-6-methoxy-4-(2-(pyrrolidin-1-yl)ethyl)-2H-benzo[b][1,4]oxazin-3(4H)-one] was tested. Which Ki [1] did it give?
Its Ki is 14.4 nM.

What about the activation at 0.1 µM [2] of the same molecule?
Its activation at 0.1 µM is 47%.

What about the activation at 0.1 µM [3] of the same molecule?
The activation at 0.1 µM was 125%.

What does the source list for `CCn1cnc2c(-c3ccc(F)c(-c4ccc5c(ncn5C5COC5)c4OC)c3)cnnc21` [Example 115, 7-Ethyl-4-(4-fluoro-3-(4-methoxy-1-(oxetan-3-yl)-1H-benzo[d]imidazol-5-yl)phenyl)-7H-imidazo[4,5-c]pyridazine]?
Ki [1, 4]: 16.4 nM; activation at 0.1 µM [2]: -25%; activation at 0.1 µM [3]: 85%

With `CCn1cnc2c(-c3ccc(F)c(-c4cc5ccncc5cc4OC)c3)cnnc21` [Example 123, 6-(5-(7-Ethyl-7H-imidazo[4,5-c]pyridazin-4-yl)-2-fluorophenyl)-7-methoxyisoquinoline] as the molecule, how does the Ki [1, 4] read?
Its Ki is 7.7 nM.

And the activation at 0.1 µM [2]?
Its activation at 0.1 µM is 33%.

What about the activation at 0.1 µM [3] of the same molecule?
Its activation at 0.1 µM is 95%.

With `CCn1cnc2c(-c3ccc(F)c(-c4ccc5c(ncn5C)c4OC)c3)cnnc21` [Example 126, 7-Ethyl-4-(4-fluoro-3-(4-methoxy-1-methyl-1H-benzo[d]imidazol-5-yl)phenyl)-7H-imidazo[4,5-c]pyridazine] as the molecule, how does the Ki [1, 4] read?
Its Ki is 5.22 nM.

What about the activation at 0.1 µM [2] of the same molecule?
Its activation at 0.1 µM is -35%.

And the activation at 0.1 µM [3]?
The activation at 0.1 µM was 90%.

What does the source list for `CCn1cnc2c(-c3ccc(F)c(-c4cc5cn(C)nc5cc4OC)c3)cnnc21` [Example 141, 7-Ethyl-4-(4-fluoro-3-(6-methoxy-2-methyl-2H-indazol-5-yl)phenyl)-7H-imidazo[4,5-c]pyridazine]?
Ki [1, 4]: 9.15 nM; activation at 0.1 µM [2]: 37%; activation at 0.1 µM [3]: 105%

With `CCn1cnc2c(-c3ccc(F)c(-c4cc5cn(C6CCN(C)CC6(F)F)nc5cc4OC)c3)cnnc21` (stereo not drawn) [Example 74, 4-(3-(2-(3,3-Difluoro-1-methylpiperidin-4-yl)-6-methoxy-2H-indazol-5-yl)-4-fluorophenyl)-7-ethyl-7H-imidazo[4,5-c]pyridazine] as the molecule, how does the Ki [1, 4] read?
Its Ki is 6.99 nM.

What about the activation at 0.1 µM [2] of the same molecule?
Its activation at 0.1 µM is 9%.

And the activation at 0.1 µM [3]?
The activation at 0.1 µM was 104%.
